Data on eleven compounds can be found in article PMC5636120, “Biochemical characterization of recombinant influenza A polymerase heterotrimer complex: Polymerase activity and mechanisms of action of nucleotide analogs” (PLoS ONE, 2017).

Data set [1] has as its target concentrated cRNP with endogenous viral template (Influenza A virus, UniProt P03431). The note with it: 500 μM natural NTPs and/or analogs, 60 minutes.
For data set [2], the target named is recombinant influenza polymerase trimer (RdRp) (Influenza A virus, UniProt P03431). Put plainly: Mechanism of action, gel-based incorporation assay with miniHA template and capped 33P-m7G167 primer. Format: biochemical, Influenza A virus H1N1 strain A/PR/8. The note with it: 500 μM analog in place of GTP, 500 μM each CTP, UTP, ATP, miniHA template. The protocol:
(§1) The PA, PB1 and PB2 genes of Influenza A virus RNA polymerase were amplified by reverse-transcription and PCR from H1N1 strain A/PR/8. The 3x FLAG tag was added to the N-terminal full-length PA and cloned into pFastBac1 vector (Life Technologies, Carlsbad, CA). Full-length PB1 and PB2 genes were cloned into pFastBac Dual vector (Life Technologies) as described previously. Recombinant baculovirus was generated for PA and PB1/PB2 using Sf9 cells and was used to co-infect Trichopulsia ni cells (Hi5) at 1.5 x 10^6 cells/ml in ESF-921 medium (Expression Systems, David, CA). Purification and biochemical characterization of the polymerase heterotrimer was described previously. The purified polymerase complex was stored at -80°C prior use.
Recombinant influenza polymerase trimer (80 ng/μL) was incubated with 595 nM ^33P-m^7G^167 and 1.6 μM miniHA template in buffer containing 50 mM HEPES (pH 7.8), 2 mM DTT, 5 mM magnesium acetate, 0.2 U/mL RNasin for 60 minutes at 37°C. After the endonuclease cleavage of ^33P-m^7G^167 was completed, 20 μM of endonuclease inhibitor 4-(1,4-bis(4-chlorobenzyl)piperidin-4-yl)-2,4-dioxobutanoic acid was added to the reaction mixture. The polymerase reactions were initiated by adding nucleotide analogs and three other natural NTPs (all at final concentrations of 500 μM) and 10 μCi α-^33P-ATP. Reactions were incubated at 37°C for 30 minutes and quenched with equal volumes of gel loading dye containing 90% formamide, 100 mM EDTA, 0.1% (w/v) bromphenol blue and xylene cyanol. Reactions were analyzed by electrophoresis (25% polyacrylamide, 8 M urea). The dried gels were exposed to phosphorimager screen and visualized using the Typhoon Trio and ImageQuant Software (GE, Piscataway, NJ.)

Data set [3] deals with T1, recombinant influenza RdRp (PA/PB1/PB2 heterotrimer) (Influenza A virus, UniProt P03431). Set-up: method as in PMID 23874596. The note with it: cited from earlier work.
For data set [4], the target named is T1, recombinant influenza RdRp (PA/PB1/PB2 heterotrimer). Put plainly: Apparent binding affinity (Kapp), single nucleotide incorporation. Format: biochemical, Influenza A virus H1N1 strain A/PR/8. The settings on record: for Selectivity factor, Kapp(analog):Kapp(GTP): natural GTP over analog; for Kapp: SNI-G template, ApG primer, 37°C, 35 minutes, concentration converting half of 9-mer to 10-14-mer. The method, then:
as §1
The apparent binding affinity Kapp was determined for GTP and T-1106-TP as described by Jin et al. 250 nM recombinant polymerase trimer was pre-incubated with 2.5 μM SNI-G template, 1 μM SNI-Pro promoter, and 400 μM ApG primer in a buffer containing 40 mM Tris-HCl (pH 7.0), 20 mM NaCl, 5 mM MgCl2, 2 mM DTT, and 0.2 U/μL RNasin at 37°C. The reaction was initiated by adding a mixture of 25 μM CTP, 25 μM UTP, 25 μCi of α-^33P-UTP, and various concentrations of GTP or analogs. Reactions proceeded for 35 minutes and were quenched with equal volumes of loading dye containing 90% formamide, 100 mM EDTA, 0.1% (w/v) amount of bromphenol blue and xylene cyanol. The products were separated by 25% PAGE, visualized, and quantified by autoradiography as described above. Data were fit with Eq I, where %Max and %Min are respectively the ratios of (10+11+12+13+14-mer)/ (9+10+11+12+13+14-mer) at the highest nucleotide concentration and the baseline level of mis-incorporation of CTP/UTP in the absence of the correct nucleotide (GTP) encoded by the template sequence, Kapp is the concentration at which half of the reactant (9-mer) is converted to products (10+11+12+13+14-mers), and S is the concentration of nucleotide analog.
Y=(%Max−%Min)⋅S/Kapp+S+%Min (I)

In data set [5] the test system is influenza A (A/Hong Kong/8/68). Put plainly: Antiviral activity (virus-induced cytopathic effect, CellTiterGlo) in infected MDCK cells. The note with it: for EC50: MDCK cells infected with Influenza A/HK/68, MOI 0.005, five day incubation, nucleoside form. Format: cell-based, Influenza A virus A/Hong Kong/8/68. The protocol:
MDCK cells were seeded in 96-well plates at a density of 1 × 10^4 cells per well in 100 μL of MEM medium supplemented with 10% FBS. Medium was removed the next day and the cells were washed twice with 100 μL MEM medium supplemented with 0.125% (w/v) BSA (MEM-BSA). Serially diluted compounds were added to cells in 150 μL MEM-BSA and cells were infected with influenza A (A/Hong Kong/8/68, Advanced Biotechnologies Inc.) at MOI 0.005 in 50 μL of MEM-BSA medium supplemented with 8 μg/mL trypsin (Worthington, Lakewood, NJ). After five day incubation at 37°C, virus-induced cytopathic effect was determined by adding CellTiterGlo viability reagents (Promega, Madison, WI) and the luminescence signal was measured using Perkin Elmer’s Envision MultiLabel plate reader (Santa Clara, CA). The cytotoxicity of compounds in MDCK cells was determined in replicate plates with the same setup as used in the antiviral assay, except no virus was added to the cell culture. EC50 and CC50 values were calculated by non-linear regression analysis using GraphPad Prism (La Jolla, CA) and four parameter logistic sigmoidal dose-response (variable slope) equations.

The next data set in a line: in vitro. The settings on record: dog.
In data set [6] the target is viral ribonucleoprotein complexes from detergent-disrupted Influenza A/PR/8/34 (Influenza A virus, UniProt P03431). The data set can be described thus: Influenza polymerase inhibition (IC50) filter binding assay, ApG-primed RNA synthesis by cRNP. The note with it: vs T-705-RTP.
Setting [7] is: Influenza A virus, MDCK, 120 h, read-out: EC50.

Structures are written as SMILES. Where “and” joins values, the source holds several entries; their conditions need not be identical. Identical values can stand only once. Like-named read-outs stand apart in the source and are kept apart here.

Regarding `NC(=O)c1nc(F)cn([C@@H]2O[C@H](COP(=O)(O)OP(=O)(O)OP(=O)(O)O)[C@@H](O)[C@H]2O)c1=O` [T-705-RTP], the “Incorporation / mode of action in cRNP reactions” value (from here on “Incorporation / mode of action”) in data set [1] is “neither incorporation”. For the same compound, in data set [2], the “Mode of action on RNA synthesis” value was “delayed chain-termination”.
`Nc1nc2c(ncn2[C@@H]2O[C@H](COP(=O)(O)OP(=O)(O)OP(=O)(O)O)[C@@H](O)[C@H]2O)c(=O)[nH]1` [GTP]: in data set [3], the “Kapp, reported value” is 8 nM. Also, the “Selectivity factor, Kapp(analog):Kapp(GTP)” value in data set [4] was determined as 1.
Take `NC(=O)c1nc(F)c[nH]c1=O` [T-705]: the EC50 is 2.2 µM in data set [5] (Influenza A virus, MDCK, 120 h) and 2.4 ± 1.1 µM in data set [5] (read-out: EC50). The same compound returned a CC50 in “in vitro” of more than 100 µM.
In the case of `N#CC1(COP(=O)(O)OP(=O)(O)OP(=O)(O)O)OC(n2cnc3c(=O)[nH]c(N)nc32)C(F)C1O` (stereo not drawn) [4’CN-FdGTP], the “Mode of action on RNA synthesis” value in data set [2] is given as “direct chain-termination”.
Turning to `Nc1nc2c(ncn2[C@@H]2O[C@H](CO)[C@@H](O)[C@H]2F)c(=O)[nH]1` [2’FdG, 2’-deoxy, 2’F guanosine], the EC50 amounted to 18 µM in data set [5] (Influenza A virus, MDCK, 120 h) and 19 ± 5 µM in data set [5] (read-out: EC50). Also, the CC50 at 5 day in “in vitro” is more than 200 µM.
On to `N#C[C@]1(CO)O[C@@H](n2cnc3c(=O)[nH]c(N)nc32)[C@H](F)[C@@H]1O` [4’CN-FdG], for which the EC50 in data set [5] (setting [7]) was more than 200 µM. The CC50 at 5 day in “in vitro” was more than 200 µM.
In the case of `C=C[C@]1(COP(=O)(O)OP(=O)(O)OP(=O)(O)O)O[C@@H](n2cnc3c(=O)[nH]c(N)nc32)[C@H](F)[C@@H]1O` [4’vinyl-FdGTP], in data set [4], the Kapp is 29 µM and the “Selectivity factor, Kapp(analog):Kapp(GTP)” value turned out to be 3096. Also, the Kapp in data set [4] (listed as 4'vinyl-FdGTP) was determined as 29.1 µM. In data set [2], the “Mode of action on RNA synthesis” value is recorded as “direct chain-termination”.
`NC(=O)c1nccn([C@@H]2O[C@H](CO)[C@@H](O)[C@H]2O)c1=O` [T-1106]: the EC50 in data set [5] (setting [7]) was 27 ± 6 µM. The CC50 at 5 day in the data set “in vitro” was more than 100 µM.
In the case of `C=C[C@]1(CO)O[C@@H](n2cnc3c(=O)[nH]c(N)nc32)[C@H](F)[C@@H]1O` [4’vinyl-FdG], the EC50 in data set [5] (Influenza A virus, MDCK, 120 h) was 110 µM; in data set [5] (read-out: EC50) it was 116 ± 48 µM. Also, in “in vitro”, the CC50 at 5 day was more than 200 µM.
With `Nc1nc2c(ncn2[C@@H]2O[C@H](COP(=O)(O)OP(=O)(O)OP(=O)(O)O)[C@@H](O)[C@H]2F)c(=O)[nH]1` [2’FdGTP], the “Incorporation / mode of action” value in data set [1] was “stable incorporation”. Moreover, the “Mode of action on RNA synthesis” value in data set [2] is on record as “stably incorporated into RNA”.
For `NC(=O)c1nccn([C@@H]2O[C@H](COP(=O)(O)OP(=O)(O)OP(=O)(O)O)[C@@H](O)[C@H]2O)c1=O` [T-1106-TP], the “Fold more potent (lower enzymatic IC50) than T-705-RTP in the biochemical assay” value in data set [6] is reported as 3. In addition, in data set [1], the “Incorporation / mode of action” value is “incorporation and chain termination”. Moreover, the “Times lower selectivity factor than the reported selectivity over T-705-TP” value in data set [4] (compared with reported selectivity) is 6.3. For the same compound, the “Selectivity factor, Kapp(analog):Kapp(GTP)” value in data set [4] was 3 and 2.9. Moreover, in data set [5] (vs T-705, MDCK cells), the “Fold less potent than T-705 in the antiviral assays” value was 12. Besides, the “Mode of action on RNA synthesis” value in data set [2] is given as “delayed chain termination”.
